The source made the active and inactive calls.
How the values were obtained:
Aminopeptidase N = target: T1, Aminopeptidase N (Plasmodium falciparum FcB1/Columbia, UniProt O96935); assay: P. falciparum M1AAP inhibitors, biochemical, fluorogenic H-Leu-NHMec substrate, 1536-well (AID 1445); set-up: species or system Plasmodium falciparum 3D7, 3D7
T1 sequence (O96935 whole entry): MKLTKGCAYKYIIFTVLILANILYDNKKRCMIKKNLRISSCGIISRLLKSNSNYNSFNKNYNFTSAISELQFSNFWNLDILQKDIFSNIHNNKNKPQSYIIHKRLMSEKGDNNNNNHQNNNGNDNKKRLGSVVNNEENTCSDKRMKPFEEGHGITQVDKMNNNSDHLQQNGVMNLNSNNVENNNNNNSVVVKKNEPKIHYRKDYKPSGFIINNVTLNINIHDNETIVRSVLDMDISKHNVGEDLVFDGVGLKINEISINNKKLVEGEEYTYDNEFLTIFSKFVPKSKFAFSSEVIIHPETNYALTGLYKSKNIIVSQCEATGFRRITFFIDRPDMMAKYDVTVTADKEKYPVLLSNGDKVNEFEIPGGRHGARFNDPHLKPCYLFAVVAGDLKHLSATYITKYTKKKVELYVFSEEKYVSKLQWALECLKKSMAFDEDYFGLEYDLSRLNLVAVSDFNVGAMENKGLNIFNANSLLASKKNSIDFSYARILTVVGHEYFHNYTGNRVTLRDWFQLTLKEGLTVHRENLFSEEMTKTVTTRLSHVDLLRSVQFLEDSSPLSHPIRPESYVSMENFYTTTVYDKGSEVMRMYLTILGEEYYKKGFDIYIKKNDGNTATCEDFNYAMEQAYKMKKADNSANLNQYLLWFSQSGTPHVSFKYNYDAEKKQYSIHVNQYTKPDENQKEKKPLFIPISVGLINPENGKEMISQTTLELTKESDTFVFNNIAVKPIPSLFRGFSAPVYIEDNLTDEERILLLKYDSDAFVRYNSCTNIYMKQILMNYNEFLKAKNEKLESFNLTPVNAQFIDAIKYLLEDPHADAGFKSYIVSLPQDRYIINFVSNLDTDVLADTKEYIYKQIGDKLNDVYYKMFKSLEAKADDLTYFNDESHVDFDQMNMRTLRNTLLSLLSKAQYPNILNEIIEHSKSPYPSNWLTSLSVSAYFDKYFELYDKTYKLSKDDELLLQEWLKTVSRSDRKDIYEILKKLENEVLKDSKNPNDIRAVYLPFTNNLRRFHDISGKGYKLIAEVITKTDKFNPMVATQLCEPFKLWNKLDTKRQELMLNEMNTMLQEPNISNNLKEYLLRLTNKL

[1] = target: Eukaryotic translation initiation factor 4E (Mus musculus, UniProt P63073); assay: eIF4E–eIF4G protein interaction inhibitors, dose response, biochemical, TR-FRET (AID 855); format: functional;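 further: potency for disrupting eIF4E binding to eIF4GI seen as loss of FRET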
[2] = HEp-2 cell cytotoxicity, dose response, cytotoxicity control for RSV inhibitor project, HTS (AID 2410); format: functional; conditions: human respiratory syncytial virus
[3] = target: T2, Sentrin-specific protease 7 (Homo sapiens, UniProt Q9BQF6); format: functional;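 further: Luminescence-based dose-response confirmation of ultra-high-throughput screening hits, measuring inhibition of SENP7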
T2 sequence (Q9BQF6 whole entry): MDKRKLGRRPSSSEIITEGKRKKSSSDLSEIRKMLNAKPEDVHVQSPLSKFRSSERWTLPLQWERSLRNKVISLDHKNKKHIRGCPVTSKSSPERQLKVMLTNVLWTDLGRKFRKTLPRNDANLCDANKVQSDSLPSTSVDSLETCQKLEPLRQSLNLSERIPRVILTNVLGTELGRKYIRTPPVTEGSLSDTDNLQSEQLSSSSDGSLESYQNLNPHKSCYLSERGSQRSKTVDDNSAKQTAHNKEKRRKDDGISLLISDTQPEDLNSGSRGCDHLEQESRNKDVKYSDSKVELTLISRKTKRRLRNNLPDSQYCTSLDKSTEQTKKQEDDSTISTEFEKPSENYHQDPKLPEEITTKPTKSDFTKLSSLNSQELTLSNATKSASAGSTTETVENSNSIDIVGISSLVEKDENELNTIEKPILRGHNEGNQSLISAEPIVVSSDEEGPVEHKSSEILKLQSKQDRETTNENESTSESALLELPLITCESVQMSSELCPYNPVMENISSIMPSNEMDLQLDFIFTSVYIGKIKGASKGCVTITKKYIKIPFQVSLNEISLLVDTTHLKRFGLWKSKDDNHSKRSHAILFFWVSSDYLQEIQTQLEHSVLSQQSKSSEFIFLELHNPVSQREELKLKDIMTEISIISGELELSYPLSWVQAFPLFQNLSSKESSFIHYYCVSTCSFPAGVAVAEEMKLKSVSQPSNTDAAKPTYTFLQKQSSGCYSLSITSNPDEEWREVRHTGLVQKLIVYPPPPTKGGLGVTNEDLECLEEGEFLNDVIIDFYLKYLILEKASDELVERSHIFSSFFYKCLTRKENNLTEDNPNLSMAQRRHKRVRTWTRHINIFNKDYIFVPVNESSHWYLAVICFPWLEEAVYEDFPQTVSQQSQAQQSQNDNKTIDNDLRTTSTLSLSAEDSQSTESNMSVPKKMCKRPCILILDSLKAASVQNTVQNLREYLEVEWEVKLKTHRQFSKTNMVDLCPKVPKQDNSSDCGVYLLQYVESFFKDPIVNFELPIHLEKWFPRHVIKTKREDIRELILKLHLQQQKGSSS

[4] = target: T3, Sentrin-specific protease 8 (Homo sapiens, UniProt Q96LD8); format: functional;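 further: luminescence read-out of SENP8 inhibition, dose-response confirmation following an ultra-high-throughput screen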
T3 sequence (Q96LD8 whole entry): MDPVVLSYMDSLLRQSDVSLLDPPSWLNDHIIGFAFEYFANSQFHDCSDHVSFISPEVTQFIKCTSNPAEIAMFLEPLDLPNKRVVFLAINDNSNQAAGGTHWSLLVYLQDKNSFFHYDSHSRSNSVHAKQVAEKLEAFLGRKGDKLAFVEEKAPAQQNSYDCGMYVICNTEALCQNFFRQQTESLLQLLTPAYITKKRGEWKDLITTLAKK

[5] = target: T4, Sentrin-specific protease 6 (Homo sapiens, UniProt Q9GZR1); format: functional;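 further: Luminescence-based dose-response confirmatory assay of SENP6 inhibition, following up an ultra-high-throughput screen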
T4 sequence (Q9GZR1 whole entry): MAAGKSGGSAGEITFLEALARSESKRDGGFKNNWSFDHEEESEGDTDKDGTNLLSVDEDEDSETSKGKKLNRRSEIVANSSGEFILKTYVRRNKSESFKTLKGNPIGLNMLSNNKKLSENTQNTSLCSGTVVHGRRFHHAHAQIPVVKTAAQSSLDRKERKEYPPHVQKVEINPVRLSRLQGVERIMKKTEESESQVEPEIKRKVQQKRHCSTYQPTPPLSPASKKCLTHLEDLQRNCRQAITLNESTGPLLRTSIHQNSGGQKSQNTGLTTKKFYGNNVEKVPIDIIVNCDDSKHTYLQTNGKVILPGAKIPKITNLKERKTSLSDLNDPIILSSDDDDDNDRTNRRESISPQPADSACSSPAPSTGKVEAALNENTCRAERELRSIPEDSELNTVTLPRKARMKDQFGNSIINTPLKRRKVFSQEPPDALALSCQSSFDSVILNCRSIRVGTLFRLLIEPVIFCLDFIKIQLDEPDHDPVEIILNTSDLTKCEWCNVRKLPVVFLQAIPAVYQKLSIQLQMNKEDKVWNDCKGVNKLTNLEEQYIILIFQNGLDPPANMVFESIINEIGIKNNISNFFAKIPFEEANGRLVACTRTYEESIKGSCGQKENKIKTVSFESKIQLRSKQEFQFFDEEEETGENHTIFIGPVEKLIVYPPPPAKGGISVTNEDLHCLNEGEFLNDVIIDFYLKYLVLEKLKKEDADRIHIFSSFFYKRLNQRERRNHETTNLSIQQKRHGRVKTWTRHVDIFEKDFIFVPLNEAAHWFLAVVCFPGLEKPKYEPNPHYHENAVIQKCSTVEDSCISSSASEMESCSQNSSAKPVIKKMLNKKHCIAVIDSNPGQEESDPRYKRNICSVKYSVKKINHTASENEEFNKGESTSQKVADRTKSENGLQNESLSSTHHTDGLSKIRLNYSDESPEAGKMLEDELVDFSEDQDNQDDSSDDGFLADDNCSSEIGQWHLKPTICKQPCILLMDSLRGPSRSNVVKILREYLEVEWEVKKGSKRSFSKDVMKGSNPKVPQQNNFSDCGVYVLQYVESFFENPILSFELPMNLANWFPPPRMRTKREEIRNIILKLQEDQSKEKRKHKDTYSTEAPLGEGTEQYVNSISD

[6] = inhibitors of clade B AD8 Env fusion, dose response, cell-based, cherry-pick (AID 652062); format: functional;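 further: luciferase signal from cell-cell fusion driven by HIV-1 clade B AD8 Env; potency is for inhibitors of fusion seen as a drop in luminescence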
[7] = inhibitors of HIV Env-driven cell fusion, dose response, cherry-pick (AID 652057); format: functional, cell-based
Large T antigen = Large T antigen (Simian virus 40, UniProt P03070); format: functional, Betapolyomavirus macacae;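 further: Confirmatory-stage PubChem screen for compounds that inhibit SV40 T antigen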
[8] = target: T5, Carboxy-terminal domain RNA polymerase II polypeptide A small phosphatase 1 (Homo sapiens, UniProt Q9GZU7); assay: inhibitors of CTDSP1, concentration-response testing, biochemical assay, absorbance-based, actives from ultra-high-throughput screening (AID 540297); format: functional
T5 sequence (Q9GZU7 whole entry): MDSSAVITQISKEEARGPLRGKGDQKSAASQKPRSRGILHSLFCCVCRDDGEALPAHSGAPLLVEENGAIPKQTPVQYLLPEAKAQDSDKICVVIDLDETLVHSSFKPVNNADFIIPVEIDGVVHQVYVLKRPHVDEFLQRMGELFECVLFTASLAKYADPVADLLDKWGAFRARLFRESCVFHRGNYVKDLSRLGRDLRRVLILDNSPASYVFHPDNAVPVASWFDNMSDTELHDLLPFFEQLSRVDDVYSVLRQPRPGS

[9] = cytotoxicity in HEK-293T cells, dose response, cytotoxicity control for TCR NF-kB inhibitor project, luminescence, T-cell screen hits (AID 489026); format: functional, cell-based;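 further: cells exposed to compound about 14 hours before the viability readout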
Nonstructural protein 1 = Nonstructural protein 1 (Influenza A virus, UniProt Q194T2); format: functional, Influenza A virus (A/California/07/2009(H1N1))
cells = format: functional
[10] = target: DNA dC->dU-editing enzyme APOBEC-3G (Homo sapiens, UniProt Q9HC16); assay: Dose Response confirmation of small molecule APOBEC3G DNA Deaminase Inhibitors via a fluorescence-based single-stranded DNA deaminase assay. [Related pubchem assays (depositor defined):AID493012, AID493028]; format: functional
DNA dC->dU-editing enzyme APOBEC-3G, sequence (Q9HC16 whole entry): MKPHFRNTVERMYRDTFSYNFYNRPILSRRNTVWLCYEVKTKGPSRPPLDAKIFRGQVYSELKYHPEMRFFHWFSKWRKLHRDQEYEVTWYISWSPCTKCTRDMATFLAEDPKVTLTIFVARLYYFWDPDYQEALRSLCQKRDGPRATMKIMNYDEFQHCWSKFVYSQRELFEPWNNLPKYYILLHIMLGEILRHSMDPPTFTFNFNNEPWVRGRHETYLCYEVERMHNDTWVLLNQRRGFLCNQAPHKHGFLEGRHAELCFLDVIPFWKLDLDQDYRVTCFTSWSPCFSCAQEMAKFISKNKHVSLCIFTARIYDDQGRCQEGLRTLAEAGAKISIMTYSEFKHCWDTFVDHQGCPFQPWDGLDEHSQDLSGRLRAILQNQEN

Nonstructural protein 1, sequence (Q194T2 whole entry): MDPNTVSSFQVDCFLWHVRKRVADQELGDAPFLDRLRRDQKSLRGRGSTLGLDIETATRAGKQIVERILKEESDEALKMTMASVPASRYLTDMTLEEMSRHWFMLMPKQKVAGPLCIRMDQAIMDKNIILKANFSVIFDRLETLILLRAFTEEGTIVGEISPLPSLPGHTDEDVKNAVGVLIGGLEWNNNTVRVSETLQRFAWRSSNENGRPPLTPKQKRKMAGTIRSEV
Eukaryotic translation initiation factor 4E, sequence (P63073 whole entry): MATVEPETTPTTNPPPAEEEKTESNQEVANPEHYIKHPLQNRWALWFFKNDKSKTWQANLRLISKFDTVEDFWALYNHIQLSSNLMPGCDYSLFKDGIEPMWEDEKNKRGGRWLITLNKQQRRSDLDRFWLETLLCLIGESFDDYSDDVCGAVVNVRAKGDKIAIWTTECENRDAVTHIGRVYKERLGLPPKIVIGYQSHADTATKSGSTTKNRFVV
Large T antigen, sequence (P03070 whole entry, the tested form may be a part): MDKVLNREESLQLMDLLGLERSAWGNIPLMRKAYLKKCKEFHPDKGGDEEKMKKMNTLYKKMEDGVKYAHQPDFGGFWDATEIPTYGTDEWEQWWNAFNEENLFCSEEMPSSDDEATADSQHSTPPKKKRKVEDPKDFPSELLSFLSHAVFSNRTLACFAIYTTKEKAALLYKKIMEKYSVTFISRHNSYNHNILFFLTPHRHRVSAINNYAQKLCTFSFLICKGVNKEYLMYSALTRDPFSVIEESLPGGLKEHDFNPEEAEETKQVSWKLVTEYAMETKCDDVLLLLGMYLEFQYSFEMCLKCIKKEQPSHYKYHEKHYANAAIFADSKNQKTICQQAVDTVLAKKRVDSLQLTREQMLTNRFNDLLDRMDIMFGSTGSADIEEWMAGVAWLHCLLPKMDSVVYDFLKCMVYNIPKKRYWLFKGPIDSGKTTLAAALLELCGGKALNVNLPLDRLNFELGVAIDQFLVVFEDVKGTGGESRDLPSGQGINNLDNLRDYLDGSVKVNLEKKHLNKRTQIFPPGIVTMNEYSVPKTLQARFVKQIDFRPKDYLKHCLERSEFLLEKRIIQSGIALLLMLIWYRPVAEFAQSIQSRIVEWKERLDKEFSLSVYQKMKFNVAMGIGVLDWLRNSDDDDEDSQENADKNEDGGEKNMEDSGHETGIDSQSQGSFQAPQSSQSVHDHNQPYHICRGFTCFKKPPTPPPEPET

Cc1ccc(S(=O)(=O)NNC2=NS(=O)(=O)c3ccccc32)c(C)c1
IC50 (Aminopeptidase N): 9.97 µM (active)

COc1ccc(C(=O)CN2C(=O)NC(C)(c3ccc(C)cc3)C2=O)cc1OC (centres undefined)
IC50 [1]: > 64 µM (inactive)

Cc1ccc2nc(NS(C)(=O)=O)sc2c1
CC50 [2]: 23 µM (active)

CC1CCN(c2c(NCC3CCC(C(=O)NCCc4ccc(Cl)cc4)CC3)c(=O)c2=O)CC1 (centres undefined)
CC50 [2]: > 50 µM (active)

CCn1c(CNC(=O)c2cccs2)nnc1SCC(=O)NCCc1ccccc1
IC50 (Aminopeptidase N): 90 µM (active)

Cc1[nH]n(C(N)=S)c(=O)c1/N=N/c1ccccc1C(F)(F)F
IC50 [3]: 12.7 µM (active) | IC50 [4]: 15.5 µM (active) | IC50 [5]: 18.9 µM (active)

Cc1ccc(S(=O)(=O)N(C)C[C@@H]2Oc3ccc(NC(=O)Cn4cnnn4)cc3CC(=O)N([C@H](C)CO)C[C@@H]2C)cc1
AC50 [6]: 7.7 µM (active) | AC50 [7]: 2.96 µM (active)

O=c1cc(CN2CCN(c3ccc(O)cc3)CC2)nc2scc(-c3ccccc3)n12
IC50 (Large T antigen): 10.5 µM (active)

CCN(CC)S(=O)(=O)c1ccc(OC)c(NC(=O)Cc2cccs2)c1
IC50 [8]: 4.5 µM (active) | IC50 [1]: 50 µM (inactive)

CN1/C(=C\C(=O)c2cccnc2)Sc2ccccc21
CC50 [2]: 26.5 µM (active)

N#C/C(=C\c1ccc(OC(=O)c2ccc(Br)s2)cc1)c1nc2ccccc2[nH]1
IC50 [8]: 1.78 µM (active) | IC50 [1]: > 64 µM (inactive)

CCOC(=O)C(C)Oc1cccc2c(=O)n(CC(=O)NCc3ccco3)ccc12 (centres undefined)
IC50 [9]: > 80 µM (inactive)

CCCCc1nc(NCCNC(=O)c2ccco2)c(C#N)c2c1CSC(C)(C)C2
IC50 (Aminopeptidase N): 85.3 µM (active)

COc1cc(NS(=O)(=O)c2ccc(NC(=S)NC(=O)c3cccs3)cc2)nc(OC)n1
IC50 (Aminopeptidase N): 38.9 µM (active)

CN(C(=O)c1ccccc1OCc1ccc(Cl)cc1)c1ccccc1
CC50 [2]: 25.7 µM (active)

Cc1ccc2cc(CCNS(=O)(=O)c3ccc(Br)cc3)c(O)nc2c1C
CC50 [2]: 22.1 µM (active)

C[C@H](NC(=O)c1ccccc1)C(=O)Nc1nc(-c2ccccn2)cs1
IC50 (Nonstructural protein 1): 16.3 µM (active)

O=[N+]([O-])c1ccc(Sc2ccc(Cl)c(Cl)c2)nc1
IC50 [9]: > 80 µM (inactive)

CCN(CC)c1ccc(S(=O)(=O)N(CC)CC)cc1NC(=O)c1cccnc1
IC50 (Aminopeptidase N): 28.5 µM (active)

Cc1cccc(NC(=O)c2ccc(OC3CSC3)cc2)c1
IC50 (cells): 44 µM (active)

CCOc1cc(NS(=O)(=O)c2ccc(NC(C)=O)cc2)c(OCC)cc1NC(=O)c1cccs1
IC50 (Large T antigen): 24 µM (active)

COc1ccccc1-c1noc(-c2ccccc2)n1
IC50 [1]: > 64 µM (inactive)

O=C1CCC(C(=O)Nc2cccc(S(=O)(=O)Nc3ccccc3F)c2)=NN1
IC50 [10]: 24.6 µM (active)

O=[N+]([O-])c1cc(/C=N/N=C(/Nc2ccccn2)c2ccccn2)ccc1O
IC50 (Nonstructural protein 1): 2.46 µM (active)

CN1CCN(C(=S)SCC(=O)Nc2ccc(Cl)cc2C(=O)c2ccccc2)CC1
IC50 (Nonstructural protein 1): > 100 µM (active)

C[C@H]1CN([C@@H](C)CO)C(=O)c2ccccc2-c2ccccc2CO[C@H]1CN(C)S(=O)(=O)c1cccc(C#N)c1
AC50 [6]: 0.743 µM (active) | AC50 [7]: < 0.26 µM (active)

COc1ccc(OC2C(=O)N(Cc3ccc4c(c3)OCO4)C2c2cccs2)cc1 (centres undefined)
AC50 [6]: 1.71 µM (active) | AC50 [7]: 53.1 µM (active)

From ChEMBL document CHEMBL1201862, “PubChem BioAssay data set” (2004)
